Measurements taken from paper PMC10583239 (CPT: Pharmacometrics & Systems Pharmacology, 2023).
≈ marks a conversion by molar mass, not a printed value. Marks after values point to notes of the source that are not given here.

How the values were obtained:
CYP2C8 [1] = target: T1, CYP2C8 (Homo sapiens, UniProt P10632); experiment: Metabolic stability in recombinant human CYP2C8 with NADPH; format: in vitro ADME; conditions: CYP2C8 share of CYP metabolism, scaled by abundance and ISEF
T1 sequence (P10632 1-490): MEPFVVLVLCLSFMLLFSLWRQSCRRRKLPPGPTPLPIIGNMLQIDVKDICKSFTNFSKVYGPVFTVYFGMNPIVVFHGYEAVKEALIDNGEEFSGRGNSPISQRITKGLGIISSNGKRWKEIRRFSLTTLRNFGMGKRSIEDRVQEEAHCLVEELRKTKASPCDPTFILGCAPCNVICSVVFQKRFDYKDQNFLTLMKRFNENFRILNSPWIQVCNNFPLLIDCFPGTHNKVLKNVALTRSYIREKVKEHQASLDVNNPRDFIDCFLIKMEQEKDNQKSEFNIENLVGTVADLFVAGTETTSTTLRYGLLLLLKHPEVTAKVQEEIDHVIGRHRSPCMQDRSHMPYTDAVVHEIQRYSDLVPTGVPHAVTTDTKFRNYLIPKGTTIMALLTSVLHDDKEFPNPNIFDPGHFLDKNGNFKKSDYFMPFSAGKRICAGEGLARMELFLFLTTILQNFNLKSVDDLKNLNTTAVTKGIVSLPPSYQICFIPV

Blood‐to‐plasma ratio = format: in vitro ADME; conditions: PBPK input
[2] = radiolabeled pomotrelvir ref 16; cited from earlier work
CYP1A2 = target: T2, CYP1A2 (Homo sapiens, UniProt P05177); experiment: biochemical
T2 sequence (P05177 1-516): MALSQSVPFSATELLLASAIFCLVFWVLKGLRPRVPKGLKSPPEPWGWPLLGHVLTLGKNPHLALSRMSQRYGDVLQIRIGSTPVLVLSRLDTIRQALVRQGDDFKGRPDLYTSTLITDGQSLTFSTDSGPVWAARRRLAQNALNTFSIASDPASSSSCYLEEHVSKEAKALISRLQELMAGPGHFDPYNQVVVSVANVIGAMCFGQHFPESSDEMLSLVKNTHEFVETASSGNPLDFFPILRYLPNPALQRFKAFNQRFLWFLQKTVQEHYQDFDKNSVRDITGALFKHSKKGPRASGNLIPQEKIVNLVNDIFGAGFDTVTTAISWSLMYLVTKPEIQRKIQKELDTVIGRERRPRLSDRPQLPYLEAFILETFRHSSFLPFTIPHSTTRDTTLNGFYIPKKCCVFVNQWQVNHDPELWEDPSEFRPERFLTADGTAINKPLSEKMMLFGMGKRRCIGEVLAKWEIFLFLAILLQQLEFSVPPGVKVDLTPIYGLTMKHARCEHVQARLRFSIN

PBPK model parameters = experiment: PBPK model parameters; set-up: species or system human
Aqueous phase solubility = format: physicochemical; conditions: pH 6.71, aqueous buffer
[3] = Clinical DDI cohorts: pomotrelvir with ritonavir 100 mg
CYP3A4 [4] = target: T3, CYP3A4 (Homo sapiens, UniProt P08684); experiment: CYP3A4 inhibition in human liver microsomes; format: in vitro ADME
T3 sequence (P08684 whole entry): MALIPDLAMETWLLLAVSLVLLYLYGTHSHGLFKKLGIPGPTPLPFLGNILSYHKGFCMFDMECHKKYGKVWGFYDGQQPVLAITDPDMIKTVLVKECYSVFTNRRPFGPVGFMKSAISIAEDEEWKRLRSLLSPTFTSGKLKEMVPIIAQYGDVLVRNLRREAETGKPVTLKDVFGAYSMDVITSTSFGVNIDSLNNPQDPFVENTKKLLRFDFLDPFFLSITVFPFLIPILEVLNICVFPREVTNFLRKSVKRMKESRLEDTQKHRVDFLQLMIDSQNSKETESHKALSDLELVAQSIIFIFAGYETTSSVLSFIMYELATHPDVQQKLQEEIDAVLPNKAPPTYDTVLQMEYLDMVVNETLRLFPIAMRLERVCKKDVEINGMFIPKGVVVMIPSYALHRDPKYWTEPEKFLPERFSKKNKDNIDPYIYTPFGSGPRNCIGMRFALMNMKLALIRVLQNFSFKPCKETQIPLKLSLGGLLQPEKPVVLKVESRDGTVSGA

CYP3A4 [5] = target: T3, CYP3A4; experiment: Metabolic stability in recombinant human CYP3A4 with NADPH; format: in vitro ADME; conditions: CYP3A4 share of CYP metabolism, scaled by abundance and ISEF
CYP2C8 [6] = target: T1, CYP2C8; experiment: CYP2C8 inhibition in human liver microsomes; format: in vitro ADME
CYP2D6 = CYP2D6 (Homo sapiens, UniProt P10635); experiment: Metabolic stability in recombinant human CYP2D6 with NADPH; format: in vitro ADME; conditions: CYP2D6 share of CYP metabolism, scaled by abundance and ISEF
CYP2D6, sequence (P10635 whole entry): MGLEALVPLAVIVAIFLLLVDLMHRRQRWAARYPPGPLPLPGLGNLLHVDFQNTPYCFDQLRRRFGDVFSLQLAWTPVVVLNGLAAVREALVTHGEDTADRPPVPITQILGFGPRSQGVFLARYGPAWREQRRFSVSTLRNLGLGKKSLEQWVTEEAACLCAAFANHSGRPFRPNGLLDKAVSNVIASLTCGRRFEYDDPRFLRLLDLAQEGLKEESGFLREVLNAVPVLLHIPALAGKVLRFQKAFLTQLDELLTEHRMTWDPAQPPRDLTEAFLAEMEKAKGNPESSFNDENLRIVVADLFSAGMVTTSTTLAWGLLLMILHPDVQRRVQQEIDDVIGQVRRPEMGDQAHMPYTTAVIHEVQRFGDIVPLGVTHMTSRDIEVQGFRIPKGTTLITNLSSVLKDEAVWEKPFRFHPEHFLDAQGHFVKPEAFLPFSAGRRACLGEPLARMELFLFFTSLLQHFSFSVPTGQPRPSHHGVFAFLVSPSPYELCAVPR

CYP2C9 [7] = target: T4, CYP2C9 (Homo sapiens, UniProt P11712); experiment: Metabolic stability in recombinant human CYP2C9 with NADPH; format: in vitro ADME; conditions: CYP2C9 share of CYP metabolism, scaled by abundance and ISEF
T4 sequence (P11712 whole entry): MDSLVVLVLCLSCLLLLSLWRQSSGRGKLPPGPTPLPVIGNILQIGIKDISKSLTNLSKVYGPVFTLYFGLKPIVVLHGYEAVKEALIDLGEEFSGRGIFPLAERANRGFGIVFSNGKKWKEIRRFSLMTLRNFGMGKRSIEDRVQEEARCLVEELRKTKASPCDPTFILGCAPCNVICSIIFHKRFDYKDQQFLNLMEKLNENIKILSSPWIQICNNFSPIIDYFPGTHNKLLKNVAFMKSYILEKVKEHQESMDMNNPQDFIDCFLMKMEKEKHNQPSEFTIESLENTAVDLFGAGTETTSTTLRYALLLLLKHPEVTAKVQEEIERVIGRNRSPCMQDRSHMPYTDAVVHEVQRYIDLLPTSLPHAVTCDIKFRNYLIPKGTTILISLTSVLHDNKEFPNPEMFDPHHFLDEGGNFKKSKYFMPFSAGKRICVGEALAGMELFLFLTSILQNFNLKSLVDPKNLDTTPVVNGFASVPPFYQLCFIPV

[8] = test system: human colon adenocarcinoma clone 2 (Caco‐2); experiment: Caco‐2 apparent permeability; format: in vitro ADME; conditions: Caco‐2 cell line
CYP2C19 [9] = target: T5, CYP2C19 (Homo sapiens, UniProt P33261); experiment: biochemical
T5 sequence (P33261 whole entry): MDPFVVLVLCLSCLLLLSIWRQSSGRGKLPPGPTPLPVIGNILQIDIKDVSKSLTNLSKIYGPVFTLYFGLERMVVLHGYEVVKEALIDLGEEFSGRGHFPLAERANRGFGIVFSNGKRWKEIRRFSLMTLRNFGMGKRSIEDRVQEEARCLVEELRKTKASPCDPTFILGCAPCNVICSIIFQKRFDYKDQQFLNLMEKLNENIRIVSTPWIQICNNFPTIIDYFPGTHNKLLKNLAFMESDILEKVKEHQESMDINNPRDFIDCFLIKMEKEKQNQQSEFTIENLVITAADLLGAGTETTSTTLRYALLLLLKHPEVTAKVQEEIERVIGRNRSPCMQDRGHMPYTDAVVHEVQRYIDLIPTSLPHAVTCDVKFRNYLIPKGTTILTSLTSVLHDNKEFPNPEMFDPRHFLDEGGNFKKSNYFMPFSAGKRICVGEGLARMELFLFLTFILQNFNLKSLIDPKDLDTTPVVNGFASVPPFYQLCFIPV

CYP2C19 [10] = target: T5, CYP2C19; experiment: Metabolic stability in recombinant human CYP2C19 with NADPH; format: in vitro ADME; conditions: CYP2C19 share of CYP metabolism, scaled by abundance and ISEF
CYP2C9 [11] = target: T4, CYP2C9; experiment: biochemical
recombinant human CYP3A5 = recombinant human CYP3A5 (Homo sapiens, UniProt P20815); experiment: Metabolic stability in recombinant human CYP3A5 with NADPH; format: in vitro ADME; conditions: CYP3A5 share of CYP metabolism, scaled by abundance and ISEF
recombinant human CYP3A5, sequence (P20815 whole entry): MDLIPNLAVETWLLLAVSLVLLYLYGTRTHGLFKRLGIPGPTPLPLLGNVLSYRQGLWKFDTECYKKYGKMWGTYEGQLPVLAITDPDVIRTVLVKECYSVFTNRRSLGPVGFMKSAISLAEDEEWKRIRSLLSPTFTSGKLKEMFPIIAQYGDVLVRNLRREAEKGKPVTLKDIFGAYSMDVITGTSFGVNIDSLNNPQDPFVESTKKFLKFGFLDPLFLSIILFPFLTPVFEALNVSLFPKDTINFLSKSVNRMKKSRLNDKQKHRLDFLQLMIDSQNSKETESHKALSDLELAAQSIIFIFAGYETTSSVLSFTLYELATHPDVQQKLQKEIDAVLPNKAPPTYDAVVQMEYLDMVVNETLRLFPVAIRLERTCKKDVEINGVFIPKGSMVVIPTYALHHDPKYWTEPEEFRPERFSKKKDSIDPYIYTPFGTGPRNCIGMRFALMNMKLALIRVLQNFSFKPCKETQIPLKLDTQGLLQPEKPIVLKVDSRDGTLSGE

[12] = Human liver microsomal protein binding; format: in vitro ADME; conditions: human liver microsomes
[13] = phase I FIH study ref 7; cited from earlier work
[14] = (20 mg PBI + 100 mg RTV, SD)/(100 mg POMO, SD)
[15] = (50 mg PBI + 100 mg RTV, Day1)/(100 mg POMO, SD)
[16] = (50 mg PBI + 100 mg RTV, Day5)/(100 mg POMO, SD), AUClast/Dose over AUCinf/Dose
[17] = (50 mg PBI + 100 mg RTV, Day10)/(100 mg POMO, SD), AUClast/Dose over AUCinf/Dose

Structure (SMILES): N#C[C@H](C[C@@H]1CCCNC1=O)NC(=O)[C@H](CC1CC1)NC(=O)c1cc2cccc(Cl)c2[nH]1 [Pomotrelvir, pomotrelvir]
- Relative Contribution (fm) (CYP2C8 [1]): 11%
- B:P (Blood‐to‐plasma ratio): 0.93
- major route of metabolism and clearance [2]: nonhepatic hydrolysis
- urinary excretion of intact drug [2]: Minimal
- contribution of nonhepatic, presystemic hydrolysis to apparent clearance (following oral dosing, thought to contribute): ~ 50%
- CL/F (mean apparent oral clearance) (oral dose of 300 mg administered with food (FIH study)): 33.19 L/h
- Ki (CYP1A2): 9.04 µM
- fmCYP3A4 (PBPK model parameters; PBPK input, set to match the ritonavir DDI study): 0.25
- CYP3A4 CLint (unbound) (PBPK model parameters; retrograde model from CL/F): 0.376 µL/min/pmol
- fmCYP3A4 (PBPK model parameters; value to match the ritonavir DDI study): 25%
- solubility (Aqueous phase solubility): 10 µg/mL (≈ 21.9 µM)
- change of dose‐normalized systemic exposure in the presence of ritonavir ([3]; 100 mg ritonavir, all cohorts and parameters): 0.92–1.54 fold
- AUCinf/dose GMR (90% CI) [3, 14]: 0.92 (0.67, 1.26)
- AUClast/dose GMR (90% CI) [3, 14]: 1.06 (0.68, 1.65)
- Cmax/dose GMR (90% CI) [3, 14]: 0.97 (0.76, 1.22)
- AUCinf/dose GMR (90% CI) [3, 15]: 1.54 (1.13, 2.1)
- AUClast/dose GMR (90% CI) [3, 15]: 1.38 (1.08, 1.76)
- Cmax/dose GMR (90% CI) [3, 15]: 1.46 (1.16, 1.84)
- Cmax/dose GMR (90% CI) ([3]; (50 mg PBI + 100 mg RTV, Day5)/(100 mg POMO, SD)): 1.3 (0.9, 1.89)
- AUCinf/dose GMR (90% CI) [3, 16]: 1.34 (0.96, 1.87) ^a
- AUClast/dose GMR (90% CI) [3, 16]: 1.34 (0.96, 1.87) ^a
- Cmax/dose GMR (90% CI) ([3]; (50 mg PBI + 100 mg RTV, Day10)/(100 mg POMO, SD)): 1.41 (1.05, 1.91)
- AUCinf/dose GMR (90% CI) [3, 17]: 1.37 (1.05, 1.79) ^b
- AUClast/dose GMR (90% CI) [3, 17]: 1.37 (1.05, 1.79) ^b
- increase in exposure upon coadministration with ritonavir ([3]; single or multiple doses): < 50%
- Ki (CYP3A4 [4]): 34.7 µM
- inhibitory effect on CYP3A4 in vitro (in words) (CYP3A4 [4]; main text summary): time‐dependent inhibition (TDI)
- Relative Contribution (fm) (CYP3A4 [5]): 88%
- Ki (CYP2C8 [6]): 1.93 µM
- inhibitory effect on CYP2C8 in vitro (in words) (CYP2C8 [6]; main text summary): weak to moderate inhibition
- Relative Contribution (fm) (CYP2D6): negligible
- Relative Contribution (fm) (CYP2C9 [7]): negligible
- efflux ratio [8]: large
- Ki (CYP2C19 [9]): 27.3 µM
- Relative Contribution (fm) (CYP2C19 [10]): negligible
- Ki (CYP2C9 [11]): 12.3 µM
- Relative Contribution (fm) (recombinant human CYP3A5): negligible
- fraction unbound [12]: 0.85
- oral bioavailability [13]: good
- tolerability [13]: well tolerated
